The values that follow are results of earlier work, collected in patent publication US11419872B2, “Phosphoinositide 3-kinase and Src inhibitors for treatment of pancreatic cancer” (Innoplexus AG, priority 2020, dated 2022).

The conditions of data set [1]: for adverse events reported: literature reports.
The next data set has as its target CYP3A4 (Homo sapiens, UniProt P08684).
Data set [2] concerns primary tumours and metastasis. As to conditions: pre-clinical animal models.
In data set [3] the test system is gastric cancer cell line MKN-1.
The subject of data set [4] is breast cancer cell line MDA-MB-231.
For data set [5] the following is noted: in vivo.
In data set [6] the test system is human embryonic kidney cell line HEK293.
Data set [7] has as its system colon carcinoma cell line CT26.
For data set [8], the system named is pancreatic cancer cell line PANC-1. As to conditions: PANC-1 (Suzuki et al. 2016).

CYP3A4, sequence (P08684 whole entry): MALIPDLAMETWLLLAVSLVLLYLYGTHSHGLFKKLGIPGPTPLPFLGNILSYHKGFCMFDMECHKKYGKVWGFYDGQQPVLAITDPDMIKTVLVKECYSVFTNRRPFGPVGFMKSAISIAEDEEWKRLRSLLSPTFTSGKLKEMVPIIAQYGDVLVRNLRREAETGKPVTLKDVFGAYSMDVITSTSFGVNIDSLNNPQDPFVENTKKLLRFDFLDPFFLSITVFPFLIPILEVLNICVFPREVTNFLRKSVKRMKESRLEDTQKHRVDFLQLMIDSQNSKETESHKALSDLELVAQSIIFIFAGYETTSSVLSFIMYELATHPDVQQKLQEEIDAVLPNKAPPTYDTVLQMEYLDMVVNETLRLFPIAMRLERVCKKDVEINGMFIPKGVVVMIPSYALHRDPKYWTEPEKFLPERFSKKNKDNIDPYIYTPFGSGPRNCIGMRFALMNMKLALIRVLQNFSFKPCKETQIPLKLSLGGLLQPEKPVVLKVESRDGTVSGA

With `C[C@H](Nc1ncnc2[nH]cnc12)c1cc2cccc(Cl)c2c(=O)n1-c1ccccc1` [duvelisib, 8-Chloro-2-phenyl-3-[(1S)-1-(3H-purin-6-ylamino)ethyl]-1(2H)-isoquinolinone], in [1], the adverse events reported result was “diarrhea or colitis, cutaneous reactions, infections and pneumonitis”. In data set [1] (patients with advanced hematologic malignancies), the safety profile result is reported as “manageable safety profile”. At CYP3A4, the primary metabolising enzyme result is reported as “primarily metabolized by CYP3A4”.
On to `Cc1c(O)c(=O)ccn1C` [deferiprone], for which the adverse events reported result in data set [1] was “joint pain, stiffness or swelling”.
Regarding `O=C(Cc1ccc(-c2ccc(OCCN3CCOCC3)cc2)cn1)NCc1ccccc1` [KX2-391, N-benzyl-2-[5-[4-(2-morpholin-4-ylethoxy)phenyl]pyridin-2-yl] acetamide], the “growth of primary tumours and metastasis” value in [2] was “inhibits the growth of both primary tumours and metastasis”.
Consider `CC[C@H](Nc1ncnc2[nH]cnc12)c1nc2cccc(F)c2c(=O)n1-c1ccccc1` [Idealisib, 5-fluoro-3-phenyl-2-[(1S)-1-(7H-purin-6-ylamino)propyl] quinazolin-4-one], for which the adverse events reported result in [1] is “pneumonitis, hematological disorder, diarrhea and colitis”.
As for `COc1c(OCCCN2CCOCC2)ccc2c1N=C(NC(=O)c1cnc(N)nc1)N1CCN=C21` [copanlisib, amino-N-[7-methoxy-8-(3-morpholin-4-ylpropoxy)-2,3-dihydro-1 H-imidazo [1,2-c]quinazolin-5-ylidene] pyrimidine-5-carboxamide], the adverse events reported entry in [1] is reported as “cardiac disorders, glucose metabolism disorders or neurological disorders”.
Consider `COc1cc(Nc2ncc(F)c(Nc3ccc4c(n3)N(COP(=O)(O)O)C(=O)C(C)(C)O4)n2)cc(OC)c1OC` [fostamatinib], for which the adverse events reported entry in [1] was “white blood cell disorder, hematological and hepatobiliary disorders”.
For the molecule `O=C1CCc2ccc(OCCCCN3CCN(c4cccc(Cl)c4Cl)CC3)cc2N1` [aripiprazole, 7-[4-[4-(2,3-dichlorophenyl)piperazin-1-yl]butoxy]-3,4-dihydro-1Hquinolin-2-one], the lipophilicity (Log P) (commonly a log measure of how a compound divides between an organic and an aqueous phase) is given as 4.55. Moreover, in data set [3], the cell viability entry was “reduced the viability”. Further, the cell viability result in data set [4] is reported as “reduced the viability”. The cell viability result with glioma cell line U251 was “reduced the viability”. Further, in [5], the elimination half-life result is “approximately 75 hours”. In data set [6], the cell viability entry is listed as “reduced the viability”. The cell viability entry in [7] is “reduced the viability”. Besides, the “cell death and number of viable cells” value in data set [8] is “induced cell death and accordingly decreased the number of viable cells”. In the data set on glioma cell line LN428, the cell viability entry is “reduced the viability”.
